The results in this text go back to patent publication US9938321B2, “Cyclic peptoid oligomers, pharmaceutical compositions and methods of using the same” (priority 2013, dated 2018).

In brackets after ≈: the same amount, converted by molar mass. Read-outs that look alike come from different tables or passages of the source.

One series is described as follows: physchem. The following applies: water.
In series [1] the test system is MRSA USA300 (S. aureus LAC). Here is the method:
The antimicrobial activities of these four compounds were evaluated in the presence of serum. Such a consideration is critical in evaluating the potential of antimicrobial compounds to be used systemically, as serum components (e.g. proteins) may complicate antimicrobial activity. The assay was conducted similarly as described above, with the media supplemented with 50% normal human serum (NHS).
(§1) Minimum Inhibitory Concentrations (MIC) were determined against S. aureus LAC in RPMI media supplemented with or without normal human serum (NHS). The 10% hemolytic dose was determined from lysis of human erythrocytes. A selectivity ratio (SR) is defined as HC10/MIC. Cytotoxicity assays were performed using a CellTiter kit with HeLa cells. […] TI: therapeutic index defined as LD50/MIC.
(§2) Antimicrobial susceptibility assays were conducted in 96-well plates using the broth microdilution procedure outlined in the document M07-A7 of the CLSI (Clinical and Laboratory Standards Institute. Methods for Dilution Antimicrobial Susceptibility Tests for Bacteria That Grow Aerobically-Seventh Edition: Approved Standard CLSI document M07-A7. CLSI, Wayne, USA, 2006). Screens against Staphylococcus aureus LAC, MW2, Newman, and RN6734 were conducted in RPMI (Roswell Park Memorial Institute) medium. For assays in serum, normal human pooled serum (NHS) was filtered through a 0.45 μm syringe filter (Pall) prior to dilution with RPMI, such that each well contained 50% (v/v) NHS. Experiments were conducted in three independent replicates of three parallel trials to ensure statistical significance.
(§3) MRSA pulse-field gel electrophoresis types USA300 (strain LAC) (Kennedy, et al, Proc. Natl. Acad. Sci. U.S.A. 2008, 105, 1327-1332) and USA500 (BK2395) (Alonzo, 3rd, et al, Mol. Microbiol. 2012, 83, 423-435) were used in this study. S. aureus were grown in tryptic soy broth (BD Biosciences) as described previously. (Alonzo) Antimicrobial susceptibility assays were conducted in 96-well plates using the broth […] procedure outlined in the document M07-A7 of the CLSI. (Clinical and Laboratory Standards Institute. Methods for Dilution Antimicrobial Susceptibility Tests for Bacteria That Grow Aerobically-Seventh Edition: Approved Standard CLSI document M07-A7. CLSI, Wayne, USA, 2006). The screens against Staphylococcus aureus LAC were conducted in either LB (Luria-Bertani) or RPMI medium. For assays in serum, normal human pooled serum (NHS) was filtered through a 0.45 μm syringe filter (Pall) prior to dilution with RPMI, such that each well contained 50% (v/v) NHS. Experiments were conducted in three independent replicates of three parallel trials to ensure statistical significance.

Series [2] deals with MRSA USA300 (S. aureus LAC). Here is the method:
The cyclic pentamers and hexamers were evaluated for antimicrobial activity against S. aureus LAC, a clinical isolate of MRSA. The antimicrobial assay was conducted using previously published procedures (CLSI Broth Macrodilution Procedures CLSI M07-A7).
as §1, §2, §3
The source holds these as a separate data set.

A further series concerns HeLa cells. The series is described as follows: in vitro. The following applies: HeLa cells, 1 hr incubation at 37° C. The protocol: (§4) As an additional parameter of selectivity, the inventors also evaluated the compounds for toxicity towards nucleated mammalian cells (FIG. 3). The compounds were incubated with HeLa cells for 1 hr at 37° C. and cell viability was determined by a dye-based assay.
(§5) HeLa cells (˜[…] cells per well) were seeded in a tissue culture-treated 96-well plate (Corning). The cells were monitored for confluence via light microscopy prior to the addition of compounds to a final volume of 100 μL/well. Following incubation with the compounds (for 1 hour or 24 hours at 37° C.), Cell Titer (Promega) was added to each well and the assay was allowed to develop for 1 hour at 37° C. Absorbance was then read at 490 nm using a Wallac Envision plate reader. The experiments were always conducted in triplicate with water or ethanol as the negative control. Percent cell viability (% CV) was calculated as the ratio of mean absorbance of the test wells and the mean absorbance of the water or ethanol treated wells.
(§6) Following seeding in DMEM supplemented with 10% v/v FBS (fetal bovine serum) in tissue-culture plates (Corning), adherent HeLa cells were trypsinized, washed in PBS, and re-suspended in medium at a density of 1×10^6 cells/mL. A 100 μL cell suspension was seeded onto a 96-well plate and cultured for 25 hrs. Subsequently, cells were exposed to the different compounds for 1 and 24 hrs and the cell viability evaluated using CellTiter 96® AQueous Non-Radioactive Cell Proliferation Assay (Promega).

Another series can be described thus: in vitro. The following applies: human. The protocol:
as §4, §5, §6

For another series, the system named is S. aureus LAC. The series is described as follows: Scanning electron microscopy of treated cells (Example 1). The series is classed as cell-based, Staphylococcus aureus. The conditions noted are these: sub-MIC, MIC, or supra-MIC; 1 hr or 18 hr. An excerpt:
AMPs have long been thought to exert their bactericidal activities by interacting with negatively-charged bacterial membranes (Zasloff, Nature 2002, 415, 389-395; Ivankin, et al, Angew. Chem. Int. Ed. 2010, 49, 8462-8465). While the exact mode of action has yet to be fully understood, the interaction of the AMP eventually leads to damage of the bacterial membrane that is visible by scanning electron microscopy (SEM). (Hartmann et al, 2010, Antimicrob Agents Ch 54, 3132-3142) SEM was used to examine the morphological changes which occur to the S. aureus cell surface upon exposure to peptoid antimicrobials (FIG. 2).
SEM samples were prepared following the procedure outlined in Hartmann et al ([…], Antimicrob Agents Ch 54:3132-3142). Mid-exponential S. aureus LAC in LB medium (10 g/L tryptone and 5 g/L yeast, pH 7.4) was prepared by diluting an overnight culture of S. aureus LAC in LB media till OD600˜0.4 (approximately 3 hours at 37° C.). […] After washing with PBS, the samples were treated with 30% ethanol for 10 minutes, 3% uranyl acetate (Electron Microscopy Sciences) in 30% ethanol/water, 50% ethanol for 10 minutes, and 70% ethanol overnight at 4° C. […]

The next series concerns human erythrocytes. The series is classed as cell-based. The conditions noted are these: red cells of human, 1 h. The text has this:
A detrimental property of most AMPs is their toxicity towards host cells due to non-specific interactions with eukaryotic membranes. Thus, the development of antimicrobial oligomers is often aimed at maximizing antimicrobial activity while minimizing eukaryotic cell toxicity. The inventors therefore sought to determine the toxicity of the cyclic peptoids by measuring hemolytic activity. The concentration of antimicrobial compound required to lyse 10% of human erythrocytes (HC10) following incubation for 1 hour at 37° C., was determined.
Hemolysis assays were conducted in 96-well plates using fresh human erythrocytes in PBS (phosphate-buffered saline) solution. Erythrocytes treated with a detergent (1% Triton X-100) solution were used as a positive control for erythrocyte lysis, and vehicle buffer (PBS) was used as a negative control. Hemolytic percentages were defined as [(A−Atestblank)/(Acontrol−Ablank)]×100, where A is the absorbance of the test well and Acontrol the average absorbance of wells with erythrocytes exposed to […], Atestblank (PBS and antimicrobial) and Ablank (PBS only).

Series [3] concerns Plasmodium falciparum 3D7. The conditions noted are these: 3D7, 96 h.
Experimental: In order to assess the ability of the peptoid oligomers described herein to act as antimalarial agents, fluorescence-based in vitro antimalarial assays were performed.
Cultures are maintained by changing the medium daily and keeping parasitemia below 6%. When performed, parasite cultures are synchronized using a MACS cell separation column (Miltenyi Biotec). To determine parasitemia, the number of parasitized erythrocytes from 500 cells in a Giemsa stained blood smear are counted.
Drug Treatment: • 1. Add 100 μL of warm (37° C.) complete media containing drug to each well of a 96 multi-well clear, sterile plate. • 2. […] After 96 hours of growth*, freeze at −80° C. overnight. *Note: Growth can be examined by pipetting 5 from desired wells onto slides and creating blood smears. […] After freezing, thaw at 37° C. for 4 hours. • 6. Transfer 100 μL, pipetting wells up and down to mix, to a black, sterile 96 well plate. • 7. Create working solution of 0.2 μL of SYBR Green per 1 mL of lysis buffer, and add 100 μL of this solution to each well, pipetting up and down to mix/lyse erythrocytes. *Note: mixture should be a translucent red color. • 8. Incubate at room temperature, protected from light, on a shaker for 1 hour.
Measure the fluorescence using excitation and emission wavelengths of 485 and 530 nm, respectively. […]

Broadly, the solubility is the dissolved amount per volume that the medium holds. Read a low solubility as little dissolved substance. The MIC is the least concentration at which growth counts as inhibited. Higher therefore signals a less susceptible organism. As usually defined, the IC50 is the concentration that inhibits the measured activity by half. Read a high IC50 as weaker potency. In the case of `Cc1cc(C)cc(CN2CC(=O)N(CCCN)CC(=O)N(Cc3cc(C)cc(C)c3)CC(=O)N(CCCN)CC(=O)N(Cc3cc(C)cc(C)c3)CC(=O)N(CCCN)CC2=O)c1` [Compound C124, C(NapNdmb)3], the solubility in the series “physchem” was ≥ 15 mg/mL. Also, the “decrease in anti-microbial activity in serum” value in series [1] (50% NHS versus no serum) is recorded as “approximately four-fold”. Besides, the “MIC + NHS” value in series [1] (MRSA USA300 in 50% (v/v) normal human serum) came to 15.6 µg/mL. Further, the MIC in series [2] (Table 2, S. aureus LAC, clinical isolate of MRSA) stood at 3.9 µg/mL (≈ 4.49 µM); in series [2] (USA300), 3.9 µg/mL (≈ 4.49 µM). For the same compound, the “LC50 (50% lethal concentration)” value in the series on HeLa cells is ~180 µg/mL (≈ 207 µM). In addition, the CC50 at 24 h in “in vitro” is ~100 µg/mL (≈ 115 µM). In addition, the CC50 at 1 h in “in vitro” (LC50 (50% lethal concentration), HeLa cells, 1 hr incubation at 37° C.) came to 180 µg/mL (≈ 207 µM). Moreover, the “cell morphology by SEM” value in the series with S. aureus LAC was “cell surface damage”. The “HC10 (concentration required to lyse 10% of human erythrocytes)” value in the series on human erythrocytes amounted to 125 µg/mL. This compound also had an IC50 in series [3] of 17 µM.
